According to PMC4235344, “A single-component multidrug transporter of the major facilitator superfamily is part of a network that protects E scherichia coli from bile salt stress” (Molecular Microbiology, 2014):

Target: T1, MdtM (Escherichia coli, UniProt P39386)
T1 construct: full-length wild-type, pBAD/Myc-His A vector (pMdtM), homologously overexpressed in E. coli LMG194, purified in DDM
Assay: intrinsic Trp fluorescence quenching
Type: binding

T1 sequence (P39386 whole entry): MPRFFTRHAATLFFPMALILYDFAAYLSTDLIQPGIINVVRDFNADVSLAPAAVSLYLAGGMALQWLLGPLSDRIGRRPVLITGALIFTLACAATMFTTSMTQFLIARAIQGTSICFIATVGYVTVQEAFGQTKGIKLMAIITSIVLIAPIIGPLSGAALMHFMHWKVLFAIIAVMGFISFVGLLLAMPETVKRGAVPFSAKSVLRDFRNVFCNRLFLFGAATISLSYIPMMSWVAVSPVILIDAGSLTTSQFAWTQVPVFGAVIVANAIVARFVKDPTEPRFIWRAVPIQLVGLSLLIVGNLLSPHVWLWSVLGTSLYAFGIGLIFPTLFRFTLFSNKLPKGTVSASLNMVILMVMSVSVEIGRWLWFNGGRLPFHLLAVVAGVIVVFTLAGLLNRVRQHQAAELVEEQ

Row | Compound | Kd [µM]
1 | C[C@H](CCC(=O)O)[C@H]1CC[C@H]2[C@@H]3[C@H](O)C[C@@H]4C[C@H](O)CC[C@]4(C)[C@H]3C[C@H](O)[C@]12C [cholate] | 24 ± 6
2 | C[C@H](CCC(=O)O)[C@H]1CC[C@H]2[C@@H]3CC[C@@H]4C[C@H](O)CC[C@]4(C)[C@H]3C[C@H](O)[C@]12C [deoxycholate] | 176 ± 20
